The results in this text go back to BindingDB's records for doi:10.1016/s0960-894x(02)00516-4 (Atherogenics, 2002).

The assay is described as follows: Inhibition of TNF-alpha inducible Vascular cell adhesion molecule-1 expression.
For the compound `CC(C)(Sc1cc(C(C)(C)C)c(O)c(C(C)(C)C)c1)Sc1cc(C(C)(C)C)c(OC(=O)C(=O)O)c(C(C)(C)C)c1` [Oxalic acid mono-{2,6-di-tert-butyl-4-[1-(3,5-di-tert-butyl-4-hydroxy-phenylsulfanyl)-1-methyl-ethylsulfanyl]-phenyl} ester], the IC50 is above 50 µM.

`CC(C)(Sc1cc(C(C)(C)C)c(O)c(C(C)(C)C)c1)Sc1cc(C(C)(C)C)c(OC(=O)CCCO)c(C(C)(C)C)c1` [4-Hydroxy-butyric acid 2,6-di-tert-butyl-4-[1-(3,5-di-tert-butyl-4-hydroxy-phenylsulfanyl)-1-methyl-ethylsulfanyl]-phenyl ester] came in with an IC50 of 40 µM. For `CC(C)(Sc1cc(C(C)(C)C)c(O)c(C(C)(C)C)c1)Sc1cc(C(C)(C)C)c(OC(=O)CO)c(C(C)(C)C)c1` [Hydroxy-acetic acid 2,6-di-tert-butyl-4-[1-(3,5-di-tert-butyl-4-hydroxy-phenylsulfanyl)-1-methyl-ethylsulfanyl]-phenyl ester] the value was 30 µM; for `CC(C)(Sc1cc(C(C)(C)C)c(O)c(C(C)(C)C)c1)Sc1cc(C(C)(C)C)c(OC(=O)CCCC(=O)O)c(C(C)(C)C)c1` [Pentanedioic acid mono-{2,6-di-tert-butyl-4-[1-(3,5-di-tert-butyl-4-hydroxy-phenylsulfanyl)-1-methyl-ethylsulfanyl]-phenyl} ester], 9 µM; for `CC(C)(Sc1cc(C(C)(C)C)c(O)c(C(C)(C)C)c1)Sc1cc(C(C)(C)C)c(OC(=O)CC(O)CO)c(C(C)(C)C)c1` (stereo not drawn) [3,4-Dihydroxy-butyric acid 2,6-di-tert-butyl-4-[1-(3,5-di-tert-butyl-4-hydroxy-phenylsulfanyl)-1-methyl-ethylsulfanyl]-phenyl ester], 8 µM. For `COC(=O)CCC(=O)Oc1c(C(C)(C)C)cc(SC(C)(C)Sc2cc(C(C)(C)C)c(O)c(C(C)(C)C)c2)cc1C(C)(C)C` [Succinic acid 2,6-di-tert-butyl-4-[1-(3,5-di-tert-butyl-4-hydroxy-phenylsulfanyl)-1-methyl-ethylsulfanyl]-phenyl ester methyl ester] the value was 40 µM; for `CC(=O)O/C(=C\C(=O)Oc1c(C(C)(C)C)cc(SC(C)(C)Sc2cc(C(C)(C)C)c(O)c(C(C)(C)C)c2)cc1C(C)(C)C)C(=O)O` [2,6-di(tert-butyl)-4-{1-[3,5-di(tert-butyl)-4-hydroxyphenylsulfanyl]-1-methylethylsulfanyl}phenyl 3-carboxylicacid-3-methylcarbonyloxy-(E)-2-propenoate], 17 µM. In turn, `CC(C)(Sc1cc(C(C)(C)C)c(O)c(C(C)(C)C)c1)Sc1cc(C(C)(C)C)c(OC(=O)COCC(=O)O)c(C(C)(C)C)c1` [{2,6-Di-tert-butyl-4-[1-(3,5-di-tert-butyl-4-hydroxy-phenylsulfanyl)-1-methyl-ethylsulfanyl]-phenoxycarbonylmethoxy}-acetic acid] came in with a 50% inhibitory concentration (IC50) of 37 µM.

Compound `CC(C)(Sc1cc(C(C)(C)C)c(O)c(C(C)(C)C)c1)Sc1cc(C(C)(C)C)c(OC(=O)[C@@H](O)CCC(=O)O)c(C(C)(C)C)c1` [(S)-2-Hydroxy-pentanedioic acid 1-{2,6-di-tert-butyl-4-[1-(3,5-di-tert-butyl-4-hydroxy-phenylsulfanyl)-1-methyl-ethylsulfanyl]-phenyl} ester] showed a half-inhibitory concentration (IC50) of 25 µM. `CC(C)(Sc1cc(C(C)(C)C)c(O)c(C(C)(C)C)c1)Sc1cc(C(C)(C)C)c(OC(=O)C(F)(F)C(F)(F)C(F)(F)C(=O)O)c(C(C)(C)C)c1` [2,2,3,3,4,4-Hexafluoro-pentanedioic acid mono-{2,6-di-tert-butyl-4-[1-(3,5-di-tert-butyl-4-hydroxy-phenylsulfanyl)-1-methyl-ethylsulfanyl]-phenyl} ester] returned a 50% inhibitory concentration (IC50) of 100 µM. Regarding `CC(C)(Sc1cc(C(C)(C)C)c(O)c(C(C)(C)C)c1)Sc1cc(C(C)(C)C)c(OC(=O)CCCCCCC(=O)O)c(C(C)(C)C)c1` [Octanedioic acid mono-{2,6-di-tert-butyl-4-[1-(3,5-di-tert-butyl-4-hydroxy-phenylsulfanyl)-1-methyl-ethylsulfanyl]-phenyl} ester], the midpoint of inhibition, the IC50, lay at 45 µM. For `CC(C)(Sc1cc(C(C)(C)C)c(O)c(C(C)(C)C)c1)Sc1cc(C(C)(C)C)c(OC(=O)C[C@@H](NC(=O)Cc2ccccc2)C(=O)O)c(C(C)(C)C)c1` [(R)-2-Phenylacetylamino-succinic acid 4-{2,6-di-tert-butyl-4-[1-(3,5-di-tert-butyl-4-hydroxy-phenylsulfanyl)-1-methyl-ethylsulfanyl]-phenyl} ester] the value was 20 µM; for `CC(C)(Sc1cc(C(C)(C)C)c(OC(=O)CCC(=O)O)c(C(C)(C)C)c1)Sc1cc(C(C)(C)C)c(OC(=O)CCC(=O)O)c(C(C)(C)C)c1` [Succinic acid mono-(2,6-di-tert-butyl-4-{1-[3,5-di-tert-butyl-4-(3-carboxy-propionyloxy)-phenylsulfanyl]-1-methyl-ethylsulfanyl}-phenyl) ester], above 50 µM; for `CC(C)(Sc1cc(C(C)(C)C)c(O)c(C(C)(C)C)c1)Sc1cc(C(C)(C)C)c(OC(=O)CCO)c(C(C)(C)C)c1` [3-Hydroxy-propionic acid 2,6-di-tert-butyl-4-[1-(3,5-di-tert-butyl-4-hydroxy-phenylsulfanyl)-1-methyl-ethylsulfanyl]-phenyl ester], 30 µM. In the case of `CC(C)(Sc1cc(C(C)(C)C)c(O)c(C(C)(C)C)c1)Sc1cc(C(C)(C)C)c(OC(=O)CCCCO)c(C(C)(C)C)c1` [5-Hydroxy-pentanoicacid2,6-di-tert-butyl-4-[1-(3,5-di-tert-butyl-4-hydroxy-phenylsulfanyl)-1-methyl-ethylsulfanyl]-phenyl ester], the 50% inhibitory concentration (IC50) came out at 55 µM. Consider `CC(C)(Sc1cc(C(C)(C)C)c(O)c(C(C)(C)C)c1)Sc1cc(C(C)(C)C)c(O)c(C(C)(C)C)c1` [2,6-di-tert-butyl-4-(2-(3,5-di-tert-butyl-4-hydroxyphenylthio)propan-2-ylthio)phenol], for which the IC50 is above 50 µM. The result for `CC(C)(Sc1cc(C(C)(C)C)c(O)c(C(C)(C)C)c1)Sc1cc(C(C)(C)C)c(OC(=O)CCC(=O)O)c(C(C)(C)C)c1` [Succinic acid mono-{2,6-di-tert-butyl-4-[1-(3,5-di-tert-butyl-4-hydroxy-phenylsulfanyl)-1-methyl-ethylsulfanyl]-phenyl} ester] reads 6 µM; that for `CC(C)(CO)CC(=O)Oc1c(C(C)(C)C)cc(SC(C)(C)Sc2cc(C(C)(C)C)c(O)c(C(C)(C)C)c2)cc1C(C)(C)C` [4-Hydroxy-3,3-dimethyl-butyric acid 2,6-di-tert-butyl-4-[1-(3,5-di-tert-butyl-4-hydroxy-phenylsulfanyl)-1-methyl-ethylsulfanyl]-phenyl ester], 110 µM.

A word on the IC50: it is the concentration that gives 50% inhibition. Lower therefore signals higher potency.
